Laboratory results as given in patent publication US20230078764A1 (Yumanity Therapeutics, Inc., priority 2019, published 2023).

Assays:
human SCD5 = molecular target: T1, human SCD5 (Homo sapiens, UniProt Q86SK9); test: Growth inhibition of yeast strain expressing human SCD5 as sole desaturase (OLE1 deleted), OD600 readout; assay type: cell-based; settings: yeast strain expressing human SCD5 as sole desaturase; growth (OD600) after 40 h at 30° C.; read-out: SCD5 IC50
T1 construct: expressed in transfected cells; host or cells: yeast strain with OLE1 deleted, plasmid-borne human SCD5 (selected in SD-Ura)
T1 sequence (Q86SK9 1-330): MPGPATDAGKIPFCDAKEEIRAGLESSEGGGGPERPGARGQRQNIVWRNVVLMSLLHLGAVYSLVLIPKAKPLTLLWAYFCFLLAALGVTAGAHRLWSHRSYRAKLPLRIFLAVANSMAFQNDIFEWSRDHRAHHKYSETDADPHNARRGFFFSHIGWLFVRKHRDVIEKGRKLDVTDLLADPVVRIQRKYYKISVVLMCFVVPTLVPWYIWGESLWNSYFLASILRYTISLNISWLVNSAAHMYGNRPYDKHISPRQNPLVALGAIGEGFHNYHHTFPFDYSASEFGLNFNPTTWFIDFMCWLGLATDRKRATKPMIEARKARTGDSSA

human SCD1 = molecular target: T2, human SCD1 (Homo sapiens, UniProt O00767); test: Growth inhibition of yeast strain expressing human SCD1 as sole desaturase (OLE1 deleted), OD600 readout; assay type: cell-based; settings: yeast strain expressing human SCD1 as sole desaturase; growth (OD600) after 40 h at 30° C.; read-out: SCD1 IC50
T2 construct: expressed in transfected cells; host or cells: yeast strain with OLE1 deleted, plasmid-borne human SCD1 (selected in SD-Ura)
T2 sequence (O00767 1-359): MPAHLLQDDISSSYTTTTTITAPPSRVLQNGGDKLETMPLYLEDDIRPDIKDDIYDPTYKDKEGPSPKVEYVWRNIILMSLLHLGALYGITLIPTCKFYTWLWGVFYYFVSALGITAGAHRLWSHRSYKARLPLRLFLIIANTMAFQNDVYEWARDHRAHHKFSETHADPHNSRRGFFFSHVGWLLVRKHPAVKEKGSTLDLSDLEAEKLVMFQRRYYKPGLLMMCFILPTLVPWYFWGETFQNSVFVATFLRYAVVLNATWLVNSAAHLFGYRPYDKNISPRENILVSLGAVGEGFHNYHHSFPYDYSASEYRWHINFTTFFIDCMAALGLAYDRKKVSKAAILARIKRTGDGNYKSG

Cn1ccc(C(=O)Nc2ccc(Cc3ccc(F)c(F)c3)cn2)n1 [Compound 92, N-(5-(3,4-difluorobenzyl)pyridin-2-yl)-1-methyl-1H-pyrazole-3-carboxamide]
IC50 (human SCD5): 20 nM | IC50 (human SCD1): 110 nM

Cn1ccc(C(=O)Nc2ccc(Cc3ccc(F)cc3)cn2)n1 [Compound 93, N-(5-(4-fluorobenzyl)pyridin-2-yl)-1-methyl-1H-pyrazole-3-carboxamide]
IC50 (human SCD5): 20 nM | IC50 (human SCD1): 550 nM

Cn1cc(C(=O)Nc2ccc(Cc3cccc(Cl)c3)cn2)cn1 [Compound 94, N-(5-(3-chlorobenzyl)pyridin-2-yl)-1-methyl-1H-pyrazole-4-carboxamide]
IC50 (human SCD5): 10 nM | IC50 (human SCD1): 30 nM

Cn1ccc(NC(=O)c2ccc(Cc3cccc(F)c3)cn2)n1 [Compound 95, 5-(3-fluorobenzyl)-N-(1-methyl-1H-pyrazol-3-yl)picolinamide]
IC50 (human SCD5): 10 nM | IC50 (human SCD1): > 45000 nM

Cn1ccc(C(=O)Nc2ccc(Cc3cc(F)cc(C#N)c3)cn2)n1 [Compound 96, N-(5-(3-cyano-5-fluorobenzyl)pyridin-2-yl)-1-methyl-1H-pyrazole-3-carboxamide]
IC50 (human SCD5): 130 nM | IC50 (human SCD1): 1080 nM

CCn1ccc(C(=O)Nc2ccc(Cc3cc(F)cc(F)c3)cn2)n1 [Compound 97, N-(5-(3,5-difluorobenzyl)pyridin-2-yl)-1-ethyl-1H-pyrazole-3-carboxamide]
IC50 (human SCD5): 20 nM | IC50 (human SCD1): 1100 nM

CCn1ccc(C(=O)Nc2ccc(Cc3ccc(F)c(F)c3)cn2)n1 [Compound 98, N-(5-(3,4-difluorobenzyl)pyridin-2-yl)-1-ethyl-1H-pyrazole-3-carboxamide]
IC50 (human SCD5): 40 nM | IC50 (human SCD1): 2960 nM

CCn1ccc(C(=O)Nc2ccc(Cc3cc(F)cc(Cl)c3)cn2)n1 [Compound 99, N-(5-(3-chloro-5-fluorobenzyl)pyridin-2-yl)-1-ethyl-1H-pyrazole-3-carboxamide]
IC50 (human SCD5): 10 nM | IC50 (human SCD1): 140 nM

CCn1ccc(C(=O)Nc2ccc(Cc3cccc(Cl)c3)cn2)n1 [Compound 100, N-(5-(3-chlorobenzyl)pyridin-2-yl)-1-ethyl-1H-pyrazole-3-carboxamide]
IC50 (human SCD5): 20 nM | IC50 (human SCD1): 1740 nM

CCn1ccc(C(=O)Nc2ccc(Cc3cccc(F)c3)cn2)n1 [Compound 101, 1-ethyl-N-(5-(3-fluorobenzyl)pyridin-2-yl)-1H-pyrazole-3-carboxamide]
IC50 (human SCD5): 20 nM | IC50 (human SCD1): 1080 nM

CCn1ccc(C(=O)Nc2ccc(Cc3ccc(F)cc3)cn2)n1 [Compound 102, 1-ethyl-N-(5-(4-fluorobenzyl)pyridin-2-yl)-1H-pyrazole-3-carboxamide]
IC50 (human SCD5): 80 nM | IC50 (human SCD1): 10300 nM

Cc1nnc(C(=O)Nc2ccc(Cc3cccc(Cl)c3)cn2)s1 [Compound 103, N-(5-(3-chlorobenzyl)pyridin-2-yl)-5-methyl-1,3,4-thiadiazole-2-carboxamide]
IC50 (human SCD5): 80 nM | IC50 (human SCD1): 160 nM

Cc1nnc(C(=O)Nc2ccc(Cc3cccc(Cl)c3)cn2)o1 [Compound 104, N-(5-(3-chlorobenzyl)pyridin-2-yl)-5-methyl-1,3,4-oxadiazole-2-carboxamide]
IC50 (human SCD5): 40 nM | IC50 (human SCD1): 40 nM

CN1N=C(C(=O)Nc2ccc(Cc3cccc(Cl)c3)cn2)CC1=O [Compound 105, N-(5-(3-chlorobenzyl)pyridin-2-yl)-1-methyl-5-oxo-4,5-dihydro-1H-pyrazole-3-carboxamide]
IC50 (human SCD5): 830 nM | IC50 (human SCD1): > 45000 nM

Cn1nc(C(=O)Nc2ccc(Cc3cccc(F)c3)cn2)cc1O [Compound 106, N-(5-(3-fluorobenzyl)pyridin-2-yl)-5-hydroxy-1-methyl-1H-pyrazole-3-carboxamide]
IC50 (human SCD5): 1240 nM | IC50 (human SCD1): > 45000 nM

Cc1cc(C(=O)Nc2ccc(Cc3cccc(F)c3)cn2)no1 [Compound 107, N-(5-(3-fluorobenzyl)pyridin-2-yl)-5-methylisoxazole-3-carboxamide]
IC50 (human SCD5): 1060 nM | IC50 (human SCD1): > 45000 nM

Cn1cc(C(=O)Nc2ccc(Cc3cccc(Cl)c3)cn2)ncc1=O [Compound 108, N-(5-(3-chlorobenzyl)pyridin-2-yl)-4-methyl-5-oxo-4,5-dihydropyrazine-2-carboxamide]
IC50 (human SCD5): 1400 nM | IC50 (human SCD1): 7610 nM

Cn1nccc(NC(=O)c2ccc(Cc3cccc(F)c3)cn2)c1=O [Compound 109, 5-(3-fluorobenzyl)-N-(2-methyl-3-oxo-2,3-dihydropyridazin-4-yl)picolinamide]
IC50 (human SCD5): 280 nM | IC50 (human SCD1): 370 nM

COCc1ncc(C(=O)Nc2ccc(Cc3cccc(Cl)c3)cn2)c(OC)n1 [Compound 110, N-(5-(3-chlorobenzyl)pyridin-2-yl)-4-methoxy-2-(methoxymethyl)pyrimidine-5-carboxamide]
IC50 (human SCD5): 220 nM | IC50 (human SCD1): 3940 nM

O=C(Nc1ccc(Cc2cc(F)cc(Cl)c2)cn1)c1ccc(CO)nc1 [Compound 111, N-(5-(3-chloro-5-fluorobenzyl)pyridin-2-yl)-6-(hydroxymethyl)nicotinamide]
IC50 (human SCD5): 10 nM | IC50 (human SCD1): 10 nM

O=C(Nc1ccc(Cc2ccc(F)c(Cl)c2)cn1)c1ccc(CO)nc1 [Compound 112, N-(5-(3-chloro-4-fluorobenzyl)pyridin-2-yl)-6-(hydroxymethyl)nicotinamide]
IC50 (human SCD5): 10 nM | IC50 (human SCD1): 10 nM

Cc1nccc(C(=O)Nc2ccc(Cc3ccc(F)c(C#N)c3)cn2)n1 [Compound 113, N-(5-(3-cyano-4-fluorobenzyl)pyridin-2-yl)-2-methylpyrimidine-4-carboxamide]
IC50 (human SCD5): 10 nM | IC50 (human SCD1): 80 nM

Cc1nccc(C(=O)Nc2ccc(Cc3cccc(Cl)c3)cn2)n1 [Compound 114, N-(5-(3-chlorobenzyl)pyridin-2-yl)-2-methylpyrimidine-4-carboxamide]
IC50 (human SCD5): 10 nM | IC50 (human SCD1): 50 nM

Cc1nccc(NC(=O)c2ccc(Cc3cccc(F)c3)cn2)n1 [Compound 115, 5-(3-Fluorobenzyl)-N-(2-methylpyrimidin-4-yl)picolinamide]
IC50 (human SCD5): 50 nM | IC50 (human SCD1): > 45000 nM

O=C(Nc1ccc(Cc2ccc(F)cc2)cn1)c1ccc(CO)nc1 [Compound 116, N-(5-(4-fluorobenzyl)pyridin-2-yl)-6-(hydroxymethyl)nicotinamide]
IC50 (human SCD5): 10 nM | IC50 (human SCD1): 10 nM

Cn1cc(C(=O)Nc2ccc(Cc3cccc(F)c3)cn2)cc(F)c1=O [Compound 117, 5-fluoro-N-(5-(3-fluorobenzyl)pyridin-2-yl)-1-methyl-6-oxo-1,6-dihydropyridine-3-carboxamide]
IC50 (human SCD5): 70 nM | IC50 (human SCD1): 630 nM

CC1CC(C(=O)Nc2ccc(Cc3cccc(F)c3)cn2)=NN(C)C1=O (stereo not shown) [Compound 118, N-(5-(3-fluorobenzyl)pyridin-2-yl)-1,5-dimethyl-6-oxo-1,4,5,6-tetrahydropyridazine-3-carboxamide]
IC50 (human SCD5): 440 nM | IC50 (human SCD1): > 45000 nM

O=C(Nc1ccc(Cc2cccc(F)c2)cn1)c1ccc(CO)nc1 [Compound 119, N-(5-(3-fluorobenzyl)pyridin-2-yl)-6-(hydroxymethyl)nicotinamide]
IC50 (human SCD5): 10 nM | IC50 (human SCD1): 10 nM

N#Cc1ccc(C(=O)Nc2ccc(Cc3cccc(Cl)c3)cn2)cn1 [Compound 120, N-(5-(3-chlorobenzyl)pyridin-2-yl)-6-cyanonicotinamide]
IC50 (human SCD5): 30 nM | IC50 (human SCD1): > 45000 nM

NCc1ccc(C(=O)Nc2ccc(Cc3cccc(Cl)c3)cn2)cn1 [Compound 121, 6-(aminomethyl)-N-(5-(3-chlorobenzyl)pyridin-2-yl)nicotinamide 2,2,2-trifluoroacetate]
IC50 (human SCD5): 20 nM | IC50 (human SCD1): 20 nM

O=C(Nc1ccc(Cc2cccc(Cl)c2)cn1)c1ccc(CO)nn1 [Compound 122, N-(5-(3-chlorobenzyl)pyridin-2-yl)-6-(hydroxymethyl)pyridazine-3-carboxamide]
IC50 (human SCD5): 10 nM | IC50 (human SCD1): 10 nM

Cc1cc(NC(=O)C2=NN(C)C(=O)CC2)ncc1Cc1cccc(Cl)c1 [Compound 123, N-(5-(3-chlorobenzyl)-4-methylpyridin-2-yl)-1-methyl-6-oxo-1,4,5,6-tetrahydropyridazine-3-carboxamide]
IC50 (human SCD5): 8940 nM | IC50 (human SCD1): > 45000 nM

CN1N=C(C(=O)Nc2ncc(Cc3cccc(Cl)c3)cc2F)CCC1=O [Compound 124, N-(5-(3-chlorobenzyl)-3-fluoropyridin-2-yl)-1-methyl-6-oxo-1,4,5,6-tetrahydropyridazine-3-carboxamide]
IC50 (human SCD5): 10000 nM | IC50 (human SCD1): > 45000 nM

O=C(Nc1ccc(CO)nc1)c1ccc(Cc2cccc(F)c2)cn1 [Compound 125, 5-(3-Fluorobenzyl)-N-(6-(hydroxymethyl)pyridin-3-yl)picolinamide]
IC50 (human SCD5): 10 nM | IC50 (human SCD1): 10 nM

Cc1ccc(NC(=O)c2ccc(Cc3cccc(F)c3)cn2)nn1 [Compound 126, 5-(3-Fluorobenzyl)-N-(6-methylpyridazin-3-yl)picolinamide]
IC50 (human SCD5): 230 nM | IC50 (human SCD1): 830 nM
